One compound from ChEMBL document CHEMBL3745675, “Design and optimization of selective azaindole amide M1 positive allosteric modulators” (Bioorg Med Chem Lett, 2016) can be followed below.

In one series the test system is Plasma. Put plainly: Fraction unbound in C57BL/6j mouse plasma. In kind it is ADME, cell-free.
The nature of series [1]: Permeability in RRCK cells. In kind it is ADME, cell-based, Canis lupus familiaris, MDCKII-LE. The note with it: dog, MDCK; read-out: permeability.
Series [2] in a line: Ratio of unbound AUC in brain to plasma in C57BL/6j mouse. Type of series: ADME, organism-based. The following applies: read-out: Ratio AUC.

Turning to `O=C(N[C@H]1CCOC[C@@H]1O)c1cn(Cc2ccc(-n3cccn3)cc2)c2cccnc12`, the “Cp(f)” value in the series with Plasma is 0.13 nM. The Papp in series [1] amounted to 21.7 ×10⁻⁶ cm/s. The Kp uu in series [2] is 0.04.
